Laboratory results taken from ChEMBL document CHEMBL3588839, “Species differences in drug plasma protein binding” (Medchemcomm, 2014).

Tests used:
Plasma [1] = experiment: Fraction unbound (%) in human plasma in phosphate buffer after 30 mins by liquid scintillation counting; assay type: ADME, cell-free; settings: 0.5 h
Plasma [2] = experiment: Fraction unbound (%) in rat plasma in phosphate buffer after 30 mins by liquid scintillation counting; assay type: ADME, cell-free; settings: 0.5 h
in vitro [3] = settings: rat, plasma, pH 7.4
Description: Fraction unbound (%) in rat plasma at pH 7.4 after 18 hrs by equilibrium dialysis

in vitro [4] = settings: human, plasma, pH 7.4
Description: Fraction unbound (%) in human plasma at pH 7.4 after 18 hrs by equilibrium dialysis

in vitro [5] = settings: dog, plasma, pH 7.4
Description: Fraction unbound (%) in dog plasma at pH 7.4 after 18 hrs by equilibrium dialysis

[6] = Fraction unbound (%) in mouse plasma at pH 7.4 after 18 hrs by equilibrium dialysis; assay type: ADME, cell-free

Row | SMILES | Fu (Plasma [1]) [%] | Fu (Plasma [2]) [%] | fraction unbound at 18 h (in vitro [3]) | fraction unbound at 18 h (in vitro [4]) | fraction unbound at 18 h (in vitro [5]) | fraction unbound at 18 h [6]
1 | CCOc1ccccc1OCCN[C@H](C)Cc1ccc(OC)c(S(N)(=O)=O)c1 [TAMSULOSIN] | 1 | 20 | 0.2 | – | – | –
2 | c1ccc(C(O[C@@H]2CCCN(CCc3ccc4c(c3)OCO4)C2)c2ccccc2)cc1 [ZAMIFENACIN] | – | – | 0.002 | 0.0001 | – | –
3 | CO[C@@]1(NC(=O)C2SC(=C(C(N)=O)C(=O)O)S2)C(=O)N2C(C(=O)O)=C(CSc3nnnn3C)CS[C@@H]21 (stereo partly specified) [CEFOTETAN] | – | – | 0.7 | 0.09 | 0.61 | –
4 | CC[C@@H](c1ccccc1)c1c(O)c2ccccc2oc1=O | – | – | – | 0.007 | – | 0.11
5 | COc1cc([C@@H]2c3cc4c(cc3[C@@H](O[C@@H]3O[C@@H]5CO[C@@H](C)O[C@H]5[C@H](O)[C@H]3O)[C@H]3COC(=O)[C@H]23)OCO4)cc(OC)c1O [ETOPOSIDE] | – | – | 0.52 | 0.049 | 0.63 | –
6 | O=c1[nH]c2ccccc2n1C1CCN(CCCC(c2ccc(F)cc2)c2ccc(F)cc2)CC1 [PIMOZIDE] | – | – | – | 0.0016 | 0.0004 | –
7 | CCCc1nn(C)c2c(=O)[nH]c(-c3cc(S(=O)(=O)N4CCN(C)CC4)ccc3OCC)nc12 | – | – | – | 0.064 | 0.26 | –
8 | Cc1cc(O)c(C(=O)N[C@@H](C(=O)N[C@@H]2C(=O)N3C(C(=O)O)=C(CSc4nnnn4C)CS[C@H]23)c2ccc(O)cc2)cn1 [CEFPIRAMIDE] | – | – | – | 0.09 | 0.6 | –
9 | CCCC(CCC)C(=O)O [VALPROIC ACID] | – | – | 0.88 | 0.052 | – | –
